Experimental data published in ChEMBL document CHEMBL6083262, “Stereorandomized Oncocins with Preserved Ribosome Binding and Antibacterial Activity” (J Med Chem, 2024).
Values after ≈ are worked out from the molar mass of the structure shown. Active and inactive are the calls of the source. No cut-off for these calls is given here. Non-standard residues stand in square brackets, D forms with d. Residues, ends and D or L forms follow the SMILES beside them. ξ: configuration not given here. ξY = NC(Cc1ccc(O)cc1)C(=O)O; ξR = N=C(N)NCCCC(N)C(=O)O; ξD = NC(CC(=O)O)C(=O)O; ξN = NC(=O)CC(N)C(=O)O; Nleu = CC(C)CNCC(=O)O; ξI = CCC(C)C(N)C(=O)O; ξL = CC(C)CC(N)C(=O)O; Nlys = NCCCCNCC(=O)O; ξK = NCCCCC(N)C(=O)O; ξV = CC(C)C(N)C(=O)O; ξP = O=C(O)C1CCCN1

How the values were obtained:
Staphylococcus aureus [1] = test: Antimicrobial activity against methicillin-resistant Staphylococcus aureus COL incubated for 16 to 20 hrs in full muller hinton medium by broth microdilution method; format: functional; conditions: time 16-20 hrs
Staphylococcus aureus [2] = test: Antimicrobial activity against methicillin-resistant Staphylococcus aureus COL incubated for 16 to 20 hrs in 12.5 % muller hinton medium by broth microdilution method; format: functional; conditions: time 16-20 hrs
[3] = Hemolytic activity in human RBC incubated for 4 hrs; format: toxicity, cell-based; conditions: erythrocyte
rRNA = test: Binding affinity to [gamma32 P-ATP] labeled Escherichia coli MG1655 23S ribosomal RNA (5-CCCTTGGGACCTACTTC-3') at U2506 position assessed as increase in band intensity at 1 uM incubated for 2.5 hrs in full muller hinton medium by CMCT based gel electrophoresis; format: nucleic-acid assay
Escherichia coli [4] = test: Bacteriostatic activity against Escherichia coli at 8 times MIC in full muller hinton medium by Time-kill assay; format: functional, organism-based
Klebsiella pneumoniae [5] = test: Bacteriostatic activity against Klebsiella pneumoniae at 8 times MIC in full muller hinton medium by Time-kill assay; format: functional, organism-based
Escherichia coli [6] = test: Bacteriostatic activity against Escherichia coli assessed as detachment of inner membrane from outer membrane by measuring a large void at 8 times MIC in full muller hinton medium by transmission electron microscopic analysis; format: functional, organism-based
Klebsiella pneumoniae [7] = test: Bacteriostatic activity against Klebsiella pneumoniae assessed as detachment of inner membrane from outer membrane by measuring a large void at 8 times MIC in full muller hinton medium by transmission electron microscopic analysis; format: functional, organism-based
Escherichia coli [8] = test: Bacteriostatic activity against Escherichia coli assessed as small intracellular vesicles at 8 times MIC in full muller hinton medium by transmission electron microscopic analysis; format: functional, organism-based
Klebsiella pneumoniae [9] = test: Bacteriostatic activity against Klebsiella pneumoniae assessed as small intracellular vesicles at 8 times MIC in full muller hinton medium by transmission electron microscopic analysis; format: functional, organism-based
Escherichia coli [10] = test: Bacteriostatic activity against Escherichia coli assessed as membrane perturbation at 8 times MIC in full muller hinton medium by transmission electron microscopic analysis; format: functional, organism-based
Klebsiella pneumoniae [11] = test: Bacteriostatic activity against Klebsiella pneumoniae assessed as membrane perturbation at 8 times MIC in full muller hinton medium by transmission electron microscopic analysis; format: functional, organism-based
Pseudomonas aeruginosa [12] = test: Antibacterial activity against multidrug-resistant Pseudomonas aeruginosa PA14 incubated for 16 to 20 hrs in full muller hinton medium by broth microdilution method; format: functional; conditions: time 16-20 hrs
Pseudomonas aeruginosa [13] = test: Antibacterial activity against multidrug-resistant Pseudomonas aeruginosa PA14 2P4 harboring pmrB mutant incubated for 16 to 20 hrs in full muller hinton medium by broth microdilution method; format: functional; conditions: time 16-20 hrs
Pseudomonas aeruginosa [14] = test: Antibacterial activity against multidrug-resistant Pseudomonas aeruginosa clinical isolate ZEM9A incubated for 16 to 20 hrs in full muller hinton medium by broth microdilution method; format: functional; conditions: time 16-20 hrs
Enterobacter cloacae [15] = test: Antibacterial activity against multidrug-resistant Enterobacter cloacae incubated for 16 to 20 hrs in full muller hinton medium by broth microdilution method; format: functional; conditions: time 16-20 hrs
Enterobacter cloacae [16] = test: Antibacterial activity against multidrug-resistant Enterobacter cloacae incubated for 16 to 20 hrs in 12.5 % muller hinton medium by broth microdilution method; format: functional; conditions: time 16-20 hrs
Lipid bilayer [17] = test: Induction of membrane disruption in egg yolk phosphatidyl glycerol at 10 ug/ml by measuring vesicle leakage; conditions: dose 10.0 µg/ml
Lipid bilayer [18] = test: Induction of membrane disruption in egg yolk phosphatidyl choline at 10 ug/ml by measuring vesicle leakage; conditions: dose 10.0 µg/ml
Klebsiella pneumoniae [19] = test: Antimicrobial activity against Klebsiella pneumoniae NCTC 418 incubated for 16 to 20 hrs in full muller hinton medium by broth microdilution method; format: functional; conditions: time 16-20 hrs
Acinetobacter baumannii = test: Antimicrobial activity against Acinetobacter baumannii ATCC 19606 incubated for 16 to 20 hrs in full muller hinton medium by broth microdilution method; format: functional; conditions: time 16-20 hrs
Escherichia coli [20] = test: Antimicrobial activity against Escherichia coli W3110 incubated for 16 to 20 hrs in 12.5 % muller hinton medium by broth microdilution method; format: functional; conditions: time 16-20 hrs
Klebsiella pneumoniae [21] = test: Antimicrobial activity against Klebsiella pneumoniae NCTC 418 incubated for 16 to 20 hrs in 12.5 % muller hinton medium by broth microdilution method; format: functional; conditions: time 16-20 hrs
Pseudomonas aeruginosa [22] = test: Antibacterial activity against multidrug-resistant Pseudomonas aeruginosa PA14 4.13 harboring phoQ mutant incubated for 16 to 20 hrs in full muller hinton medium by broth microdilution method; format: functional; conditions: time 16-20 hrs
Pseudomonas aeruginosa [23] = test: Antibacterial activity against multidrug-resistant Pseudomonas aeruginosa PA14 4.18 harboring pmrB mutant incubated for 16 to 20 hrs in full muller hinton medium by broth microdilution method; format: functional; conditions: time 16-20 hrs
Pseudomonas aeruginosa [24] = test: Antibacterial activity against multidrug-resistant Pseudomonas aeruginosa clinical isolate ZEM-1A incubated for 16 to 20 hrs in full muller hinton medium by broth microdilution method; format: functional; conditions: time 16-20 hrs
Klebsiella pneumoniae [25] = test: Antibacterial activity against multidrug-resistant Klebsiella pneumoniae clinical isolate OXA-48 incubated for 16 to 20 hrs in full muller hinton medium by broth microdilution method; format: functional; conditions: time 16-20 hrs
Klebsiella pneumoniae [26] = test: Antibacterial activity against multidrug-resistant Klebsiella pneumoniae clinical isolate OXA-48 incubated for 16 to 20 hrs in 12.5 % muller hinton medium by broth microdilution method; format: functional; conditions: time 16-20 hrs
Pseudomonas aeruginosa [27] = test: Antimicrobial activity against Pseudomonas aeruginosa PAO1 incubated for 16 to 20 hrs in full muller hinton medium by broth microdilution method; format: functional; conditions: time 16-20 hrs
Pseudomonas aeruginosa [28] = test: Antimicrobial activity against Pseudomonas aeruginosa PAO1 incubated for 16 to 20 hrs in 12.5 % muller hinton medium by broth microdilution method; format: functional; conditions: time 16-20 hrs
Pseudomonas aeruginosa [29] = test: Antibacterial activity against multidrug-resistant Pseudomonas aeruginosa clinical isolate ZEM-1A incubated for 16 to 20 hrs in 12.5 % muller hinton medium by broth microdilution method; format: functional; conditions: time 16-20 hrs

| Structure (SMILES) | MIC (Staphylococcus aureus [1]) [µg/mL] | MIC (Staphylococcus aureus [2]) [µg/mL] | MHC [3] [µg/mL] | Activity (rRNA) | MIC (Pseudomonas aeruginosa [12]) [µg/mL] | MIC (Pseudomonas aeruginosa [13]) [µg/mL] | MIC (Pseudomonas aeruginosa [14]) [µg/mL] | MIC (Enterobacter cloacae [15]) [µg/mL] | MIC (Klebsiella pneumoniae [19]) [µg/mL] | MIC (Escherichia coli [20]) [µg/mL] | MIC (Klebsiella pneumoniae [21]) [µg/mL] | MIC (Pseudomonas aeruginosa [22]) [µg/mL] | MIC (Pseudomonas aeruginosa [23]) [µg/mL] | MIC (Pseudomonas aeruginosa [24]) [µg/mL] | MIC (Klebsiella pneumoniae [25]) [µg/mL] | MIC (Klebsiella pneumoniae [26]) [µg/mL] | further results |
| --- | --- | --- | --- | --- | --- | --- | --- | --- | --- | --- | --- | --- | --- | --- | --- | --- | --- |
| CCC(C)C(NC(=O)C(CCCNC(=N)N)NC(=O)C(CCCNC(=N)N)NC(=O)C1CCCN1C(=O)C1CCCN1C(=O)[C@H](CCCNC(=N)N)NC(=O)[C@@H]1CCCN1C(=O)[C@H](CCCNC(=N)N)NC(=O)[C@@H]1CCCN1C(=O)[C@H](CC(C)C)NC(=O)[C@H](Cc1ccc(O)cc1)NC(=O)[C@@H]1CCCN1C(=O)[C@@H]1CCCN1C(=O)[C@H](CCCCN)NC(=O)[C@H](CC(=O)O)NC(=O)[C@@H](N)C(C)C)C(=O)NC(Cc1ccc(O)cc1)C(=O)NC(CC(N)=O)C(=O)NC(CCCNC(=N)N)C(N)=O (some centres not stated) (H-VDKPPYLPRPR[ξP][ξP][ξR][ξR][ξI][ξY][ξN][ξR]-NH2) | > 64 | > 16 | > 1000 | Active | > 64 | > 64 | > 64 | > 64 | – | – | – | – | – | – | – | – | Activity (Escherichia coli [4]): Active; Activity (Klebsiella pneumoniae [5]): Active; Activity (Escherichia coli [6]): Active; Activity (Klebsiella pneumoniae [7]): Active; Activity (Escherichia coli [8]): Active; Activity (Klebsiella pneumoniae [9]): Active; Activity (Escherichia coli [10]): Active; Few Membrane Perturbation Observed; Activity (Klebsiella pneumoniae [11]): Active; Few Membrane Perturbation Observed; MIC (Enterobacter cloacae [16]): 0.5 µg/mL (≈ 0.209 µM); Activity (Lipid bilayer [17]): Active; Activity (Lipid bilayer [18]): Active |
| CC(C)C[C@H](NC(=O)CN(CC(C)C)C(=O)[C@H](CC(C)C)NC(=O)CN(CCCCN)C(=O)[C@H](CC(C)C)NC(=O)CN(CC(C)C)C(=O)[C@H](CCCCN)NC(=O)CN(CC(C)C)C(=O)[C@H](CC(C)C)NC(=O)CN(CCCCN)C(=O)[C@@H](N)CCCCN)C(N)=O (H-K[Nlys]L[Nleu]K[Nleu]L[Nlys]L[Nleu]L-NH2) | > 32 | – | – | – | > 32 | > 64 | > 64 | 64 (≈ 48.4 µM) | > 32 | 2 (≈ 1.51 µM) | > 32 | > 32 | > 32 | > 64 | > 64 | 64 (≈ 48.4 µM) | MIC (Acinetobacter baumannii): > 32 µg/mL |
| CC[C@H](C)[C@H](NC(=O)[C@H](CCCNC(=N)N)NC(=O)C(CCCNC(=N)N)NC(=O)C1CCCN1C(=O)C1CCCN1C(=O)C(CCCNC(=N)N)NC(=O)C1CCCN1C(=O)C(CCCNC(=N)N)NC(=O)C1CCCN1C(=O)C(CC(C)C)NC(=O)C(Cc1ccc(O)cc1)NC(=O)C1CCCN1C(=O)C1CCCN1C(=O)C(CCCCN)NC(=O)C(CC(=O)O)NC(=O)C(N)C(C)C)C(=O)N[C@@H](Cc1ccc(O)cc1)C(=O)N[C@@H](CC(N)=O)C(=O)N[C@@H](CCCNC(=N)N)C(N)=O (some centres not stated) (H-[ξV][ξD][ξK][ξP][ξP][ξY][ξL][ξP][ξR][ξP][ξR][ξP][ξP][ξR]RIYNR-NH2) | > 64 | > 64 | > 1000 | inactive | > 64 | > 64 | > 64 | > 64 | > 64 | 4 (≈ 1.67 µM) | > 16 | > 64 | > 64 | > 64 | > 64 | > 64 | MIC (Pseudomonas aeruginosa [27]): > 64 µg/mL; MIC (Pseudomonas aeruginosa [28]): > 16 µg/mL; MIC (Pseudomonas aeruginosa [29]): > 64 µg/mL |
